The text below walks through data of patent US6153587A, “Conformationally constrained LH-RH analogues, their uses and pharmaceutical compositions containing them” (Laboratoire THERAMEX, priority 1996, dated 2000).

The assay addresses T1, LH-RH receptors (Rattus norvegicus, UniProt P30969).
T1 construct: from tissue; host or cells: rat pituitary membrane fraction (female Sprague Dawley)
T1 sequence (P30969 1-327): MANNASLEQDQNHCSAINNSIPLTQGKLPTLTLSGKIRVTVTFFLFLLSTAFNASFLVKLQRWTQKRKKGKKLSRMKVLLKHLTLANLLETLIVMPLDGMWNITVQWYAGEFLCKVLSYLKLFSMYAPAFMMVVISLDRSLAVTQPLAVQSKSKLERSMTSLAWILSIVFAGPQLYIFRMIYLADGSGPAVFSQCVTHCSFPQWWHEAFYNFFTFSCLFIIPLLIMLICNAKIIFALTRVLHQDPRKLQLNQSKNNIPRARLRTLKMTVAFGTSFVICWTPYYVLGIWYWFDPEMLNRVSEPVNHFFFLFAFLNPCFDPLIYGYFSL
Kind of assay: Affinity for LH-RH receptors: [125I]-buserelin binding to rat pituitary membranes. Particulars: 2 hours at 4° C., 20 to 70 μM [125I]-buserelin, Ki from IC50 by Cheng-Prusoff, read-out: pKi (affinity for LH-RH receptors) (converted). How it is done:
This affinity has been determined according to the following method:
Pituitaries from female Sprague Dawley rats were removed and homogenized with a Potter homogenizer in a 25 mM HEPES buffer (pH 7.4) containing 0.32 M sucrose, 100 μg/l PMSF (phenylmethylsulfonylfluoride), 5.6 U/l aprotinin and 10,000 U/l bacitracin. The homogenates were centrifuged at 700 g for 10 minutes and the supernatants were further centrifuged at 12,500 g for 30 minutes. The pellets were homogenized and centrifuged as described above, in the same buffer but without sucrose.
All homogenization, centrifugation and subsequent incubation steps were carried out at 4° C.
The assay was terminated by filtration under suction (Brandel 96-well harvester) through Whatman GF/B glass fiber filters. […] Each compound was tested in at least 4 experiments.
Specific binding data were analysed according to Scatchard's method.
For each test compound, the inhibitory constant (Ki) was calculated from its IC50 according to the Cheng and Prussofs equation: Ki=IC50 /(1+[radioligand]/Kd). Ki was then transformed into pKi (=-log Ki) for final expression of affinity scales.

On to `CC(C)C[C@@H](C(=O)N[C@@H](CCCNC(=N)N)C(=O)N1CCC[C@H]1C(=O)N[C@H](C)C(N)=O)N1CC[C@@]2(CCCN2C(=O)[C@H](Cc2ccc(O)cc2)NC(=O)[C@H](CO)NC(=O)[C@H](Cc2c[nH]c3ccccc23)NC(=O)[C@@H](Cc2ccccc2)NC(=O)[C@@H]2CCC(=O)N2)C1=O` [Example 21, pGlu-DPhe-Trp-Ser-Tyr-SPL-Leu-Arg-Pro-DAlaNH2], for which the Ki was 9.77 nM.
`CCNC(=O)[C@@H]1CCCN1C(=O)[C@H](CCCNC(=N)N)NC(=O)[C@H](CC(C)(C)C)N1CC[C@@]2(CCCN2C(=O)[C@H](Cc2ccc(O)cc2)NC(=O)[C@H](CO)NC(=O)[C@H](Cc2c[nH]c3ccccc23)NC(=O)[C@H](Cc2c[nH]cn2)NC(=O)[C@@H]2CCC(=O)N2)C1=O` [Example 16, pGlu-His-Trp-Ser-Tyr-SPL-Npg-Arg-Pro-NEt]: the Ki is 0.55 nM.
Consider `CC(=O)N[C@H](Cc1ccc2ccccc2c1)C(=O)N[C@H](Cc1ccc(Cl)cc1)C(=O)N[C@H](Cc1cccnc1)C(=O)N[C@@H](CO)C(=O)N[C@@H](Cc1ccc(O)cc1)C(=O)N1CCC[C@@]12CCN([C@@H](CC(C)(C)C)C(=O)N[C@@H](CCCCNC(C)C)C(=O)N1CCC[C@H]1C(=O)N[C@H](C)C(N)=O)C2=O` [Example 28, AcDNal-DpCtPhe-DPal-Ser-Tyr-SPL-Npg-IprLys-Pro-DAlaNH2], for which the Ki is 0.309 nM.
To `CCNC(=O)[C@@H]1CCCN1C(=O)[C@H](CCCNC(=N)N)NC(=O)[C@H](CC(C)C)N1CC[C@@]2(CCCN2C(=O)[C@H](Cc2ccc(O)cc2)NC(=O)[C@H](CO)NC(=O)[C@H](Cc2c[nH]c3ccccc23)NC(=O)[C@H](Cc2c[nH]cn2)NC(=O)[C@@H]2CCC(=O)N2)C1=O` [Example 9, pGlu-His-Trp-Ser-Tyr-SPL-Leu-Arg-Pro-NEt] belongs 1.15 nM; to `CCNC(=O)[C@@H]1CCCN1C(=O)[C@H](CCCNC(=N)N)NC(=O)[C@H](CC(C)C)N1CC[C@@]2(CCCN2C(=O)[C@H](Cc2ccc(O)cc2)NC(=O)[C@H](CO)NC(=O)[C@H](Cc2ccc3ccccc3c2)NC(=O)[C@H](Cc2c[nH]cn2)NC(=O)CN(C)C(C)=O)C1=O` [Example 13, AcSar-His-Nal-Ser-Tyr-SPL-Leu-Arg-Pro-NEt], 1.05 nM; to `CC(=O)N[C@H](Cc1ccc2ccccc2c1)C(=O)N[C@H](Cc1ccc(Cl)cc1)C(=O)N[C@H](Cc1cccnc1)C(=O)N[C@@H](CO)C(=O)N[C@@H](CCCCNC(=O)c1cccnc1)C(=O)N1CCC[C@@]12CCN([C@@H](CC(C)(C)C)C(=O)N[C@@H](CCCCNC(C)C)C(=O)N1CCC[C@H]1C(=O)N[C@H](C)C(N)=O)C2=O` [Example 29, AcDNal-DpClPhe-DPal-Ser-NicLys-SPL-Npg-IprLys-Pro-DAlaNH2], 0.363 nM.
To `CC(=O)N[C@H](Cc1ccc2ccccc2c1)C(=O)N[C@H](Cc1ccc(Cl)cc1)C(=O)N[C@H](Cc1cccnc1)C(=O)N[C@@H](CO)C(=O)N[C@@H](Cc1ccc(O)cc1)C(=O)N1CCC[C@@]12CCN([C@@H](CC(C)(C)C)C(=O)N[C@@H](CCCNC(=N)N)C(=O)N1CCC[C@H]1C(=O)N[C@H](C)C(N)=O)C2=O` [Example 25, AcDNal-DpClPhe-DPal-Ser-Tyr-SPL-Npg-Arg-Pro-DAlaNH2] belongs 0.245 nM; to `CCNC(=O)[C@@H]1CCCN1C(=O)[C@H](CCCNC(=N)N)NC(=O)[C@@H](N1CC[C@@]2(CCCN2C(=O)[C@H](Cc2ccc(O)cc2)NC(=O)[C@H](CO)NC(=O)[C@H](Cc2c[nH]c3ccccc23)NC(=O)[C@H](Cc2c[nH]cn2)NC(=O)[C@@H]2CCC(=O)N2)C1=O)C(C)(C)C` [Example 17, pGlu-His-Trp-Ser-Tyr-SPL-Tle-Arg-Pro-NEt], 1.78 nM; to `CC(=O)N[C@H](Cc1ccc2ccccc2c1)C(=O)N[C@H](Cc1ccc(Cl)cc1)C(=O)N[C@H](Cc1c[nH]c2ccccc12)C(=O)N[C@@H](CO)C(=O)N[C@@H](Cc1ccc(O)cc1)C(=O)N1CCC[C@@]12CCN([C@@H](CC(C)C)C(=O)N[C@@H](CCCNC(=N)N)C(=O)N1CCC[C@H]1C(=O)N[C@H](C)C(N)=O)C2=O` [Example 22, AcDNal-DpClPhe-DTrp-Ser-Tyr-SPL-Leu-Arg-Prx)-DAlaNH2], 0.891 nM.
`CC(=O)N[C@H](Cc1ccc2ccccc2c1)C(=O)N[C@H](Cc1ccc(Cl)cc1)C(=O)N[C@H](Cc1cccnc1)C(=O)N[C@@H](CO)C(=O)N[C@@H](CCCCNC(C)C)C(=O)N1CCC[C@@]12CCN([C@@H](CC(C)(C)C)C(=O)N[C@@H](CCCNC(=N)N)C(=O)N1CCC[C@H]1C(=O)N[C@H](C)C(N)=O)C2=O` [Example 27, AcDNal-DpCtPhe-DPal-Ser-IprLys-SPL-Npg-Arg-Pro-DAlaNH2]: the Ki is 0.0977 nM.
As for `CC(=O)N[C@H](Cc1ccc2ccccc2c1)C(=O)N[C@H](Cc1ccc(Cl)cc1)C(=O)N[C@H](Cc1csc2ccccc12)C(=O)N[C@@H](CO)C(=O)N[C@@H](Cc1ccc(O)cc1)C(=O)N1CCC[C@@]12CCN([C@@H](CC(C)C)C(=O)N[C@@H](CCCNC(=N)N)C(=O)N1CCC[C@H]1C(=O)N[C@H](C)C(N)=O)C2=O` [Example 24, AcDNal-DpClPhe-DBal-Ser-Tyr-SPL-Leu-Arg-Pr-DAlaNH2], the Ki is 0.251 nM.
In the case of `CC(=O)N[C@H](Cc1ccc2ccccc2c1)C(=O)N[C@H](Cc1ccc(Cl)cc1)C(=O)N[C@H](Cc1cccnc1)C(=O)N[C@@H](CO)C(=O)N[C@@H](CCCCNC(=O)c1cccnc1)C(=O)N1CCC[C@@]12CCN([C@@H](CC(C)(C)C)C(=O)N[C@@H](CCCNC(=N)N)C(=O)N1CCC[C@H]1C(=O)N[C@H](C)C(N)=O)C2=O` [Example 26, AcDNal-DpClPhe-DPal-Ser-NicLys-SPL-Npg-Arg-Pro-DAlaNH2] it was 0.263 nM.
To `CCNC(=O)[C@@H]1CCCN1C(=O)[C@H](CCCNC(=N)N)NC(=O)[C@H](CC(C)C)N1CC[C@@]2(CCCN2C(=O)[C@H](Cc2ccc(O)cc2)NC(=O)[C@H](CO)NC(=O)[C@H](Cc2c[nH]c3ccccc23)NC(=O)[C@H](Cc2c[nH]cn2)NC(=O)CN(C)C(C)=O)C1=O` [Example 10, AcSar-His-Trp-Ser-Tyr-SPL-Leu-Arg-Pro-NEt] belongs 6.17 nM.
In the case of `CCNC(=O)[C@@H]1CCCN1C(=O)[C@H](CCCNC(=N)N)NC(=O)[C@H](CCC(C)C)N1CC[C@@]2(CCCN2C(=O)[C@H](Cc2ccc(O)cc2)NC(=O)[C@H](CO)NC(=O)[C@H](Cc2c[nH]c3ccccc23)NC(=O)[C@H](Cc2c[nH]cn2)NC(=O)[C@@H]2CCC(=O)N2)C1=O` [Example 15, pGlu-His-Trp-Ser-Tyr-SPL-Hol-Arg-Pro-NEt] it was 2.29 nM; in that of `CCNC(=O)[C@@H]1CCCN1C(=O)[C@H](CCCNC(=N)N)NC(=O)[C@H](CC(C)C)N1CC[C@@]2(CCCN2C(=O)[C@H](Cc2ccc(O)cc2)NC(=O)[C@H](CO)NC(=O)[C@H](Cc2ccc3ccccc3c2)NC(=O)[C@H](Cc2c[nH]cn2)NC(=O)[C@@H]2CCC(=O)N2)C1=O` [Example 12, pGlu-His-Nal-Ser-Tyr-SPL-Leu-Arg-Pro-NEt], 0.105 nM.
Turning to `CCNC(=O)[C@@H]1CCCN1C(=O)[C@H](CCCNC(=N)N)NC(=O)[C@H](CC(C)C)N1CC[C@@]2(CCCN2C(=O)[C@H](Cc2ccc(O)cc2)NC(=O)[C@H](CO)NC(=O)[C@H](Cc2cccc3ccccc23)NC(=O)[C@H](Cc2c[nH]cn2)NC(=O)[C@@H]2CCC(=O)N2)C1=O` [Example 11, pGlu-His-INal-Ser-Tyr-SPL-Leu-Arg-Pro-NEt], the Ki was 0.427 nM.
As for `CC(C)C[C@@H](C(=O)N[C@@H](CCCNC(=N)N)C(=O)N1CCC[C@H]1C(=O)NCC(N)=O)N1CC[C@@]2(CCCN2C(=O)[C@H](Cc2ccc(O)cc2)NC(=O)[C@H](CO)NC(=O)[C@H](Cc2c[nH]c3ccccc23)NC(=O)[C@@H](Cc2ccccc2)NC(=O)[C@@H]2CCC(=O)N2)C1=O` [Example 20, pGlu-DPhe-Trp-Ser-Tyr-SPL-Leu-Arg-Pro-Gly-NH2], the Ki is 4.07 nM.
In the case of `CC(=O)N[C@H](Cc1ccc2ccccc2c1)C(=O)N[C@H](Cc1ccc(Cl)cc1)C(=O)N[C@H](Cc1cccnc1)C(=O)N[C@@H](CO)C(=O)N[C@@H](Cc1ccc(O)cc1)C(=O)N1CCC[C@@]12CCN([C@@H](CC(C)C)C(=O)N[C@@H](CCCNC(=N)N)C(=O)N1CCC[C@H]1C(=O)N[C@H](C)C(N)=O)C2=O` [Example 23, AcDNal-DpClPhe-DPal-Ser-Tyr-SPL-Leu-Arg-Pro-DAlaNH2] it was 0.155 nM; in that of `CCCC[C@@H](C(=O)N[C@@H](CCCNC(=N)N)C(=O)N1CCC[C@H]1C(=O)NCC)N1CC[C@@]2(CCCN2C(=O)[C@H](Cc2ccc(O)cc2)NC(=O)[C@H](CO)NC(=O)[C@H](Cc2c[nH]c3ccccc23)NC(=O)[C@H](Cc2c[nH]cn2)NC(=O)[C@@H]2CCC(=O)N2)C1=O` [Example 18, pGlu-His-Trp-Ser-Tyr-SPL-Nle-Arg-Pro-NEt], 2.04 nM.
